Measured values reported in publication PMC4059180 (Journal of medicinal chemistry, 2013).

Tests used:
tumor growth = conditions: mice inoculated with those same cells; cited from earlier work
several tumor cell lines = conditions: cited from earlier work
cells = cells in vitro and in vivo; cited from earlier work
[1] = system: mFAP transfected HEK293 cells; assay: CellTiter-Blue cell viability assay; assay type: cell-based; conditions: 48 h
FAP = biological target: T1, FAP (Homo sapiens, UniProt Q12884); assay: Enzyme kinetics; assay type: biochemical; conditions: highest concentrations tested
T1 sequence (Q12884 1-760): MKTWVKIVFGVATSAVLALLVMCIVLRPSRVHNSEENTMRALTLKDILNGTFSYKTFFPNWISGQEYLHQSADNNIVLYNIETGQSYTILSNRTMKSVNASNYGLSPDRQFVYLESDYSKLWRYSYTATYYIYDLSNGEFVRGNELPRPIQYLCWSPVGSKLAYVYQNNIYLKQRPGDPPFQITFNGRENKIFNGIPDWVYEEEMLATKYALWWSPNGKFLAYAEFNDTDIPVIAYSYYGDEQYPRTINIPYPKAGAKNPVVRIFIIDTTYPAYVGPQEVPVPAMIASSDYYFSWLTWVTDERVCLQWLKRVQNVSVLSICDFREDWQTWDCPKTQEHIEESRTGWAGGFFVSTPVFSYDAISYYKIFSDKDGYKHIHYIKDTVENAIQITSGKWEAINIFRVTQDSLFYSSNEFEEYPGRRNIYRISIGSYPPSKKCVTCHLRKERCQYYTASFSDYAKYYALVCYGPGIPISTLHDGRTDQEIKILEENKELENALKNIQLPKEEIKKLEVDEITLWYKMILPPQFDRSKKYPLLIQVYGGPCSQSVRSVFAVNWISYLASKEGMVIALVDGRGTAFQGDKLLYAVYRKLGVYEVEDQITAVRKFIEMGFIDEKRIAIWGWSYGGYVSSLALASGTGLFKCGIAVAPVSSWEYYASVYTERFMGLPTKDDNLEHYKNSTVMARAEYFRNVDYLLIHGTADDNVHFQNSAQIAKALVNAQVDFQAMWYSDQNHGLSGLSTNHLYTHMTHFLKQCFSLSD

SMILES: CC(C)[C@H](N)C(=O)N1CCC[C@H]1B(O)O [Compound 20, (S)-Valinyl-(R)-boroproline]
- tumor growth in vivo (tumor growth): attenuating tumor growth in vivo
- cytotoxicity (several tumor cell lines): lack cytotoxicity against several tumor cell lines

SMILES: CC(C)C[C@H](NC(=O)[C@H](Cc1ccccc1)NC(=O)c1cnccn1)B(O)O [bortezomib, Bortezomib]
- cytotoxicity (cells): cytotoxic

SMILES: C[C@@H](NC(=O)c1ccncc1)C(=O)N1CCC[C@H]1B(O)O [Compound 6, N-(Pyridine-4-carbonyl)-(R)-alaninyl-(R)-boroproline]
- cytotoxicity [1]: No cytotoxicity was observed

SMILES: CC(C)[C@H](NC(=O)c1cccnc1)C(=O)N1CCC[C@H]1B(O)O [Compound 22, N-(Pyridine-3-carbonyl)-(R)-valinyl-(R)-boroproline]
- inhibition of FAP in kinetic analysis (FAP): does not inhibit FAP at the highest concentrations tested
